The source of these data is patent US20110038804A1, “MR IMAGING AGENT, IMAGING MEDIUM AND METHODS OF IMAGING WHEREIN SUCH AN IMAGING MEDIUM IS USED” (priority 2007, published 2011).

The test system of series [1] is subcutaneous mouse lymphoma (EL-4). Format: in vivo. As to the method: EL-4 cells were injected into a C57Bl/6 mouse to generate a subcutaneous mouse lymphoma. 175 μl of an imaging medium comprising hyperpolarised sodium ^13C1-α-ketoisocaproate which was prepared as described in Example 2 was injected into the mouse over a time period of 6 s. The sodium ^13Ci-α-ketoisocaproate concentration in said imaging medium was about 50 mM. A 20 mm surface coil (tuned for carbon) was positioned over the subcutaneous tumour and signals of ^13C-α-ketoisocaproate and ^13C-leucine were detected by ^13C-MR spectroscopy which was carried out using a 2.4 T Bruker spectrometer to generate a metabolic profile of the tumour and the surrounding healthy tissue. A ^13C-chemical shift image was acquired with the following parameters: FOV 35×35 mm^2×10 mm, matrix size 16×16, 10 degree RF pulse, TR=35 ms. Total acquisition time was 11 seconds (die to triggering on breathing) and the chemical shift imaging started 15 seconds after the start of the injection of the imaging medium. Omniscan™ (GE Healthcare)—enhanced proton imaging was performed to confirm the tumour position and perfusion.

Another series deals with mouse liver. Briefly: In vivo 13C-MR spectroscopy with surface coil over the liver in a mouse. Also on record: species or system C57Bl/6 mouse. As to conditions: 175 μl of about 50 mM imaging medium injected over 6 s; liver region, 2.4 T, 10 spectra, repetition time 5 s. As to the method:
175 μl of an imaging medium comprising hyperpolarised sodium ^13C1-α-ketoisocaproate which was prepared as described in Example 1 was injected into a C57Bl/6 mouse over a time period of 6 s. The sodium ^13C1-α-ketoisocaproate concentration in said imaging medium was about 50 mM. A 12 mm surface coil (tuned for carbon) was positioned over the mouse to cover the liver region and signals of ^13C-α-ketoisocaproate and ^13C-leucine were detected by ^13C-MR spectroscopy which was carried out in a 2.4 T Bruker spectrometer to generate a metabolic profile. A total of 10 ^13C-spectra were acquired with a repetition time of 5 s and 30 degree RF pulses. In this Example, the ^13C-leucine signal is approximately 1% of the ^13C-α-ketoisocaproate signal.

Series [2] in a line: Tolerability in the animal models used. As to conditions: animal models of the Examples (mouse, rat). Format: in vivo. Here is the method: In another preferred embodiment, the imaging medium comprising hyperpolarised ^13C-α-ketoisocaproate is administered repeatedly, thus allowing dynamic studies.
Where [3] appears, read: 175 μl of about 50 mM imaging medium, chemical shift imaging started 15 s after start of injection, 2.4 T.

Consider `CC(C)CC(=O)[13C](=O)[O-].[Na+]` [sodium ^13C1-α-ketoisocaproate], for which, in series [1] (setting [3]), the 13C-leucine distribution entry is recorded as “confined to the tumour area” and the 13C-α-ketoisocaproate signal distribution entry is reported as “the highest in the large blood vessels”. Moreover, the “ratio image (13C-leucine to 13C-α-ketoisocaproate)” value in series [1] (confirmed by Omniscan-enhanced proton image) is recorded as “defines the tumour area”. In addition, in the series on mouse liver, the “13C-leucine signal as share of the 13C-α-ketoisocaproate signal” value was “approximately 1%”.
In the case of “^13C-α-ketoisocaproate [hyperpolarised ^13C-α-ketoisocaproate]”, the tolerability result in series [2] is recorded as “well tolerated”.
